Where two headings read alike, the source gives them in different places.
Columns and labels:
[1] = test system: Ear Edema Caused by Arachidonic Acid; experiment: Suppressing effect on ear edema caused by arachidonic acid; assay type: in vivo, ICR male mice; conditions: Mus musculus, 1 h, thickness after one hour, read-out: Suppression rate (ear edema); for inhibition in vivo at 50 mg/kg: oral administration, one hour before inflammatory agent (2 mg arachidonic acid); for inhibition in vivo at 0.1 mg: topical, local application, 0.1 mg/auricle, 30 min before inflammatory agent (2 mg arachidonic acid)
Experimental: The thickness of auricles of ICR male mice of 6 week-age was measured by using a micrometer. On both sides of one of the auricles of each mouse, was applied 2 mg of arachidonic acid dissolved in acetone as the inflammatory agent to cause inflammation thereon. The thickness of the auricle after one hour of the application was measured and the difference between the thickness obtained and the thickness before the application was taken as the value of ear edema. The compound according to the present invention dissolved in ethanol or only ethanol as a control were orally administrated or applied localy. In the case of oral administration, 50 mg/kg of the compound according to the present invention was administrated one hour before the application of the inflammatory agent, and 0.1 mg/auricle was applied 30 min before the application in the case of local application.
The suppression rate of ear edema of the compound according to the present invention was calculated based on the ratio of the suppression to the value of ear edema in the control group and the results are shown in Tables 6 and 7 (Compound numbers in Tables 6 and 7 correspond to the Compound numbers in Table 1).
Further, benoxaprofen and NDGA were used as the comparison.

[2] = literature; cited from earlier work
[3] = biological target: T1, lipoxygenase (Rattus norvegicus, UniProt P12527); experiment: Inhibition activity to lipoxygenase (leukotriene production by rat abdominal cells, bioassay on guinea pig ileum); assay type: cell-based, Wister rat; conditions: read-out: Inhibition intensity; for inhibition at 1 µM: 10^-6 M (final concentration)
T1 construct: abdominal cells of Wister rat (7 to 12 week-age); endogenous in cells; host or cells: abdominal (peritoneal) cells of Wister [Wistar] rat
T1 sequence (P12527 1-673): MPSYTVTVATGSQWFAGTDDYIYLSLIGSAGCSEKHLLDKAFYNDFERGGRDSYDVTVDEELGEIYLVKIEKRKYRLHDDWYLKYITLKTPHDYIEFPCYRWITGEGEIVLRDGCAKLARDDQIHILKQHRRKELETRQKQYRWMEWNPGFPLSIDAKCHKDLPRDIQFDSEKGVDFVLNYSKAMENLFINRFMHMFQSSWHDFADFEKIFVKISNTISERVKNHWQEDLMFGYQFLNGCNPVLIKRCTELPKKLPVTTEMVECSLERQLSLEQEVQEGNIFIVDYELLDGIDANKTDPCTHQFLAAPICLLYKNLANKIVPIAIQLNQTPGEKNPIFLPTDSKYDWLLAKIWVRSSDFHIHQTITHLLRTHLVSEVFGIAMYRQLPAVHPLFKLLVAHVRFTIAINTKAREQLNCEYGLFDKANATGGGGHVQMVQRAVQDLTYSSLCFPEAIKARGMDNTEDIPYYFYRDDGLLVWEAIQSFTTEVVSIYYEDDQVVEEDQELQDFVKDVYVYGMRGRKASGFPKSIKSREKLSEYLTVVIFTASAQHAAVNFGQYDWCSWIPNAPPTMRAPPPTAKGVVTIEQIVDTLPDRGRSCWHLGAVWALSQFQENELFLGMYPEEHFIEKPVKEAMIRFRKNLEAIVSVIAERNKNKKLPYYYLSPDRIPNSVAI
Experimental: In 0.9 ml of Hunks' solution, were suspended 2×10^6 of abdominal cells of Wister rat (7 to 12 week-age) and incubated at 37° C. for 15 min after adding 10^-7 M of arachidonic acid and the compound of the present invention dissolved in ethanol, or only 10^-7 M of arachidonic acid and ethanol as a control. Further, 100 μl of 5 μg/μl of calcium inonophore A-23187 was added and the incubation was further continued at 37° C. for 15 min to produce leukotrienes. After cooling the reaction mixture with ice for 20 min to terminate the reaction, the reaction mixture was subjected to centrifugation at 4° C. for 10 min at 3000 rpm. The inhibition activity to lipoxygenase of the compound according to the present invention was measured by bioassay of leukotrienes contained in the resultant supernatants by using a Magunus' device while taking the contraction reaction of ileum extirpated from guinea pig as the indication. The inhibition rate of the compound according to the present invention was calculated based on the ratio of the suppression due to the compound with respect to the extent of the contraction reaction in the control group, and the intensity of inhibition based thereon is shown in the following Tables 4 and 5 (Compound numbers in Tables 4 and 5 correspond to the Compound numbers in Table 1).

[4] = design: species or system ICR male mice; conditions: mouse, in vivo, po, 2000 mg/kg
Experimental: The compounds according to the present invention (Compound No. 44 in Table 1) suspended in an aqueous 1% tragacanth solution was orally administrated by 2000 mg/kg to 6 week-age ICR male mice.

[5] = 10^-5 M (final concentration), rat abdominal cells, calcium ionophore A-23187
[6] = rat abdominal cells, calcium ionophore A-23187

Row | inhibition at 10 µM [3, 5] | inhibition at 1 µM [3, 6] | SMILES | further results
1 | – | – | CC(C(=O)O)c1ccc2oc(-c3ccc(Cl)cc3)nc2c1 (centres unmarked) [Benoxaprofen, benoxaprofen] | inhibition in vivo at 50 mg/kg [1]: 15.3%; adverse effect [2]: grave adverse effect; effect on psoriasis [2]: effective to psoriasis
2 | 80 to 100% | 20 to 50% | c1ccc(OCCCOc2ccc(Cc3nc4ccccc4s3)cc2)cc1 [Compound 1, 2-[4-(3-phenoxy)propoxybenzyl]benzothiazole] | –
3 | 80 to 100% | 20 to 50% | c1ccc(OCCCOc2ccc(Cc3nc4ccccc4o3)cc2)cc1 [Compound 2, 2-[4-(3-phenoxy)propoxybenzyl]benzoxazole] | –
4 | 80 to 100% | 20 to 50% | c1ccc(OCCCCCCOc2ccc(Cc3nc4ccccc4o3)cc2)cc1 [Compound 5] | –
5 | 80 to 100% | – | Clc1cc(OCCCCOc2ccccc2)ccc1Cc1nc2ccccc2o1 [Compound 6] | inhibition in vivo at 0.1 mg [1]: 48.5%
6 | 50 to 80% | 20 to 50% | Clc1ccccc1OCCCCOc1ccc(Cc2nc3ccccc3o2)cc1 [Compound 7] | –
7 | 50 to 80% | 20 to 50% | Cc1ccccc1OCCCCOc1ccc(Cc2nc3ccccc3o2)cc1 [Compound 10] | –
8 | 50 to 80% | 20 to 50% | Fc1ccc(OCCCCOc2ccc(Cc3nc4ccccc4o3)cc2)cc1 [Compound 15] | –
9 | 80 to 100% | 50 to 80% | c1ccc(COCCCOc2ccc(Cc3nc4ccccc4o3)cc2)cc1 [Compound 19] | –
10 | 50 to 80% | 20 to 50% | COCCCCOc1ccc(Cc2nc3ccccc3o2)cc1 [Compound 25] | –
11 | 80 to 100% | 20 to 50% | C(#Cc1ccccc1)CCCOc1ccc(Cc2nc3ccccc3o2)cc1 [Compound 29] | –
12 | 50 to 80% | – | CC#CCOc1ccc(Cc2nc3ccccc3o2)c(Cl)c1 [Compound 34] | inhibition in vivo at 0.1 mg [1]: 42.9%
13 | 80 to 100% | 20 to 50% | CCCC#CCOc1ccc(Cc2nc3ccccc3o2)cc1 [Compound 37] | inhibition in vivo at 0.1 mg [1]: 42.1%
14 | 80 to 100% | – | Clc1cc(Cc2nc3ccccc3o2)ccc1OCCCC#Cc1ccccc1 [Compound 47] | –
15 | 80 to 100% | 50 to 80% | COCCCCOc1ccc(Cc2nc3ccccc3o2)cc1Cl [Compound 51] | –
16 | 80 to 100% | – | OCC#CCCCC#CCCCOc1ccc(Cc2nc3ccccc3o2)cc1Cl [Compound 57] | inhibition in vivo at 0.1 mg [1]: 49.8%
17 | 50 to 80% | 20 to 50% | Clc1ccc(OCCCCOc2ccc(Cc3nc4ccccc4o3)cc2Cl)cc1 [Compound 62] | inhibition in vivo at 0.1 mg [1]: 32.9%
18 | 80 to 100% | – | CCCCOc1cccc(Cc2nc3ccccc3o2)c1 [Compound 71] | inhibition in vivo at 50 mg/kg [1]: 77.9%
19 | 80 to 100% | 20 to 50% | CC#CCOc1cccc(Cc2nc3ccccc3o2)c1 [Compound 73] | inhibition in vivo at 50 mg/kg [1]: 85.1%
20 | 50 to 80% | 20 to 50% | C(#Cc1ccccc1)CCCOc1ccccc1Cc1nc2ccccc2o1 [Compound 89] | –
21 | 80 to 100% | 20 to 50% | C(#CCOc1ccccc1Cc1nc2ccccc2o1)CCCC#Cc1ccccc1 [Compound 90] | –
22 | 80 to 100% | – | CC#CCOc1ccccc1Cc1nc2ccccc2o1 [Compound 96] | inhibition in vivo at 50 mg/kg [1]: 71.8%
23 | 50 to 80% | – | C#CCCCC#CCOc1ccccc1Cc1nc2ccccc2o1 [Compound 98] | inhibition in vivo at 0.1 mg [1]: 50.2%
24 | 80 to 100% | 50 to 80% | CC#CCOc1cccc(Cl)c1Cc1nc2ccccc2o1 [Compound 100] | –
25 | 50 to 80% | 20 to 50% | C#CCCCOc1ccc(Cl)cc1Cc1nc2ccccc2o1 [Compound 112] | –
26 | – | – | C#CCCCOc1c(Cl)cccc1Cc1nc(-c2ccccc2)co1 [Compound 125] | inhibition in vivo at 0.1 mg [1]: 41.7%
27 | 50 to 80% | – | CC#CCOc1cccc(Cc2nc(-c3ccccc3)co2)c1 [Compound 129] | –
28 | – | – | CC(Cc1ccc(O)c(O)c1)C(C)Cc1ccc(O)c(O)c1 (centres unmarked) [NDGA, Nordihydroguaiaretic acid, reference compound] | inhibition at 10 µM [3]: 0 to 20%; inhibition in vivo at 0.1 mg [1]: 18.2%

Row | SMILES | inhibition at 10 µM [3, 5] | inhibition at 1 µM [3, 6] | further results
29 | Clc1cc(Cc2nc3ccccc3o2)ccc1OCCCCOc1ccccc1 [Compound 44] | 80 to 100% | 50 to 80% | Anatomic inspection [4]: no abnormality was observed; Condition and body weight [4]: no change was recognized at all; inhibition in vivo at 50 mg/kg [1]: 80.7%

Source: patent publication US5206255A, “Heterocyclic compound” (Mitsubishi Kasei Corporation, priority 1989, dated 1993)
